The source made the active and inactive calls. The calls are words filed in the database; no cut-off is given here.
How the values were obtained:
[1] = test system: Liver microsomes; assay: Intrinsic clearance in human liver microsomes; format: ADME, Microsome
[2] = molecular target: Dipeptidyl peptidase 4 (Homo sapiens, UniProt P27487)
[3] = Fraction unbound in rat plasma; format: ADME, cell-free
[4] = Half life in rat at 1 mg/kg, iv and 5 mg/kg, po; format: ADME, organism-based; conditions: in vivo
[5] = Volume of distribution at steady state in rat at 1 mg/kg, iv; format: ADME, organism-based; parameters: dose 1 mg/kg, route intravenous; conditions: in vivo, read-out: Vdss
[6] = test system: Rattus norvegicus; assay: Ex vivo inhibition of DPP4 in rat at 5 mg/kg, po after 16 hrs; format: functional, organism-based; parameters: dose 5 mg/kg
[7] = Apparent permeability from apical to basolateral side of MDCK cells by RRCK assay; format: ADME, cell-based, Canis lupus familiaris; conditions: dog
[8] = Oral bioavailability in rat at 5 mg/kg; format: ADME, organism-based; conditions: in vivo
[9] = Clearance in rat plasma at 1 mg/kg, iv and 5 mg/kg, po; format: ADME, organism-based
[10] = molecular target: Dipeptidyl peptidase 8 (Homo sapiens, UniProt Q6V1X1)
[11] = molecular target: T1, Cytochrome P450 1A2 (Homo sapiens, UniProt P05177); assay: Inhibition of CYP1A2; format: ADME
T1 sequence (P05177 whole entry): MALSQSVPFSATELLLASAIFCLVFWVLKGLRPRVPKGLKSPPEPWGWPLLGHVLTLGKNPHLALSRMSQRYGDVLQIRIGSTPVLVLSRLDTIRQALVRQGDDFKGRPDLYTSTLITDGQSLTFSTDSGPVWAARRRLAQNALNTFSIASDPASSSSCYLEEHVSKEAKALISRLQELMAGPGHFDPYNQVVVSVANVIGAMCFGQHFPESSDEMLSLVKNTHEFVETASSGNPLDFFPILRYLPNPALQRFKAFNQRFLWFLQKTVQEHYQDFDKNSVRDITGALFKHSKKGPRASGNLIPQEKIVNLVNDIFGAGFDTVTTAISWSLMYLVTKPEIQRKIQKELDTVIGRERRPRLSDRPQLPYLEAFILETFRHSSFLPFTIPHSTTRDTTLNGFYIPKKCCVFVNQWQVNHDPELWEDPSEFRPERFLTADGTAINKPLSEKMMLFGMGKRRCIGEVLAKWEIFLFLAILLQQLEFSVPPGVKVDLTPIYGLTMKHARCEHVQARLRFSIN

[12] = Fraction unbound in human plasma; format: ADME, cell-free
[13] = Volume of distribution at steady state in dog; format: ADME, organism-based, Canis lupus familiaris; conditions: in vivo, read-out: Vdss
[14] = Half life in dog; format: ADME, organism-based, Canis lupus familiaris; conditions: in vivo
[15] = molecular target: Cytochrome P450 2C9 (Homo sapiens, UniProt P11712); assay: Inhibition of CYP2C9; format: ADME
[16] = molecular target: Cytochrome P450 3A4 (Homo sapiens, UniProt P08684); assay: Inhibition of CYP3A4; format: ADME
[17] = molecular target: Cytochrome P450 2D6 (Homo sapiens, UniProt P10635); assay: Inhibition of CYP2D6; format: ADME
[18] = Clearance in dog; format: ADME, organism-based, Canis lupus familiaris; conditions: in vivo
[19] = Oral bioavailability in dog; format: ADME, organism-based, Canis lupus familiaris; conditions: in vivo
[20] = molecular target: Dipeptidyl peptidase 2 (Homo sapiens, UniProt Q9UHL4); assay: Inhibition of DPP2

Chain of Dipeptidyl peptidase 8 (Q6V1X1 whole entry): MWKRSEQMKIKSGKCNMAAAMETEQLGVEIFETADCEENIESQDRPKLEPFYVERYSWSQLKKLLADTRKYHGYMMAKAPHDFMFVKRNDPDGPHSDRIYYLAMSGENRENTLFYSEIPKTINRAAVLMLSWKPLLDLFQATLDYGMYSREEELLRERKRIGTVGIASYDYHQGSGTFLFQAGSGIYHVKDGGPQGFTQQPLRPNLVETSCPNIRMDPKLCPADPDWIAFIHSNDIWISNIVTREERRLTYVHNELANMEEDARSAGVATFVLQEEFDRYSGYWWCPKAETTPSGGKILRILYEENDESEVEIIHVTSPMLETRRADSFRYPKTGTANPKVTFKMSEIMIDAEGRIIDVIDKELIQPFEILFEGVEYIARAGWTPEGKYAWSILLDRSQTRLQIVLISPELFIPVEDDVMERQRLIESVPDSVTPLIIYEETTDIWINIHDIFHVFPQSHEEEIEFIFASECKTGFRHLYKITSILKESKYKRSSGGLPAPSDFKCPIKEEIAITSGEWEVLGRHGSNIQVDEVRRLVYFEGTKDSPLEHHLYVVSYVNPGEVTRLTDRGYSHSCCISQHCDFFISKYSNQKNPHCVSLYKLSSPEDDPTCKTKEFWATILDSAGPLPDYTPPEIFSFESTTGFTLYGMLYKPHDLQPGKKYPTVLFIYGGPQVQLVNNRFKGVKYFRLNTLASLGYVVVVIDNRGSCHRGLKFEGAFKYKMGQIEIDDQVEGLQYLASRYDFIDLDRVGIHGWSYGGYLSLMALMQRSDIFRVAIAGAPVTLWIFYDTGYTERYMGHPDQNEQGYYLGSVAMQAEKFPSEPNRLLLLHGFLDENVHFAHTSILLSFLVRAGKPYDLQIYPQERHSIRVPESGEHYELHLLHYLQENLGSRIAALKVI
Chain of Dipeptidyl peptidase 4 (P27487 whole entry): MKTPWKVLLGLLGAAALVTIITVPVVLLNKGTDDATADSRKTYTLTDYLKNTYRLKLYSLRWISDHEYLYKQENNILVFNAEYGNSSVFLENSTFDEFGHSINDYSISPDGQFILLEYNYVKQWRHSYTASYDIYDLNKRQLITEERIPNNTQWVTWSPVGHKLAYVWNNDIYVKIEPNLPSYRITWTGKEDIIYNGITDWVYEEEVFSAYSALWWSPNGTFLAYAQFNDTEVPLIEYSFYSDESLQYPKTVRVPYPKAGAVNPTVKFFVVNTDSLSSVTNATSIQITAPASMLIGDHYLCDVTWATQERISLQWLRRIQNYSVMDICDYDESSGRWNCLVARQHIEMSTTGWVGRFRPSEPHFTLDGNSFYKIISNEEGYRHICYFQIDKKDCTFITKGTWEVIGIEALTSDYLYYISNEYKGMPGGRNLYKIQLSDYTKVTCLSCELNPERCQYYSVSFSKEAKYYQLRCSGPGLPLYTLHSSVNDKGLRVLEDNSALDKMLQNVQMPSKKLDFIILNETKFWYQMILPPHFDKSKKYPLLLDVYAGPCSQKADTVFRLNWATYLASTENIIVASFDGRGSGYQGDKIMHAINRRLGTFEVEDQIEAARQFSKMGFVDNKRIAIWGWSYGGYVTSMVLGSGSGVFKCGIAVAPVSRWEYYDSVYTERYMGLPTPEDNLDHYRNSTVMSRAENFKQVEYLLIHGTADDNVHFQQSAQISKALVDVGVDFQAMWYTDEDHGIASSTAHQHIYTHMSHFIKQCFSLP
Chain of Cytochrome P450 3A4 (P08684 whole entry): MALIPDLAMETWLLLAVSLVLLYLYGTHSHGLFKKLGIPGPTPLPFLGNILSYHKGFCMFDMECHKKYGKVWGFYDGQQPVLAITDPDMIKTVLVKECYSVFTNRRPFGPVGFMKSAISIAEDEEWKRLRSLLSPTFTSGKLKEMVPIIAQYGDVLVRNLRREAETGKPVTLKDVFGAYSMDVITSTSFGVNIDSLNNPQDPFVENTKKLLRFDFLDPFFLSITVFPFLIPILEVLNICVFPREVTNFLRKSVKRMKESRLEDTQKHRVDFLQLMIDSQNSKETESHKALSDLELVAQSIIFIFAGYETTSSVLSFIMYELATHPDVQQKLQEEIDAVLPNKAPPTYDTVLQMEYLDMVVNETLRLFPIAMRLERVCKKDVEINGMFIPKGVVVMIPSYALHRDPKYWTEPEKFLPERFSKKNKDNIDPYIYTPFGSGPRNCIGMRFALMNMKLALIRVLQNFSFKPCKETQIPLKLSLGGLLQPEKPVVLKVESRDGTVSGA
Chain of Cytochrome P450 2C9 (P11712 whole entry): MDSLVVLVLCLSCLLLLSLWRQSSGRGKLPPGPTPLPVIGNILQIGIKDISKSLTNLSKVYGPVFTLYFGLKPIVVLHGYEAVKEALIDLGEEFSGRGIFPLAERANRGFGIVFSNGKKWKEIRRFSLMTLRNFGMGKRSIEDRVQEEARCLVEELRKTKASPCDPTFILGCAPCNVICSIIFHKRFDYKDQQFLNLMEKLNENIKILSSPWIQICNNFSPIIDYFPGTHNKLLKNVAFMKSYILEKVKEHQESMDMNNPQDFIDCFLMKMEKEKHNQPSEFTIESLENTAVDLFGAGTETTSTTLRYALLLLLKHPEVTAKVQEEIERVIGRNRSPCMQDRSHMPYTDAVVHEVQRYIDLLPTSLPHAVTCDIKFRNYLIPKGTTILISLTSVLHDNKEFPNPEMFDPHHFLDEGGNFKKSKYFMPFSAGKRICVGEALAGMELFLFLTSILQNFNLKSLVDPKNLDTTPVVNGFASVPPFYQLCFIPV
Chain of Cytochrome P450 2D6 (P10635 whole entry): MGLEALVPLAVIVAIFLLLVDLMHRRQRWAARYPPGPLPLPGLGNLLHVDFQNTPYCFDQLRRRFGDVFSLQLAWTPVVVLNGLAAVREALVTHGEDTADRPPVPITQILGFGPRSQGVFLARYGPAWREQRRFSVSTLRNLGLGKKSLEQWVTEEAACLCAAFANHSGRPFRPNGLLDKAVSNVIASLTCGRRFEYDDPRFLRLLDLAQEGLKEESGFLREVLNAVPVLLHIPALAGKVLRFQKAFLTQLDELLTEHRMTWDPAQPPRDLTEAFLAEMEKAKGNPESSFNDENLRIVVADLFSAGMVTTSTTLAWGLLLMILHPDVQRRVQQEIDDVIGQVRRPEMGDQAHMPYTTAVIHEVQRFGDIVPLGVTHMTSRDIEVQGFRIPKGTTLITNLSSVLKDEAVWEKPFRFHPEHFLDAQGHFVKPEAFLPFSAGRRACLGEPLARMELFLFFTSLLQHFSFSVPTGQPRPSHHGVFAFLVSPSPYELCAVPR

In the case of N[C@H]1CN(c2cc(-c3cc(F)cc(F)c3F)ncn2)C[C@@H]1c1ccccc1, the clearance [1] is reported as 85 µL/min/mg.

In the case of N[C@H]1CN(c2cc(-c3cc(F)c(F)cc3F)ncn2)C[C@@H]1N1CCCC1=O, the IC50 [2] is reported as 488 nM and the clearance [1] is reported as < 7 µL/min/mg.

For N[C@H]1CN(c2cc(N3CCc4nocc4C3)ncn2)C[C@@H]1N1CCCCC1=O, the IC50 [2] was 12 nM and the clearance [1] was < 7.5 µL/min/mg.

With N[C@H]1CN(c2cc(NC3CC3)ncn2)C[C@@H]1N1CCCC1=O the clearance [1] was < 7 µL/min/mg.

Molecule N[C@H]1CN(c2cc(N3CCC(F)(F)C3)ncn2)C[C@@H]1N1CCCCC1=O has an IC50 [2] of 26 nM, a fraction unbound [3] of 0.75 and a half-life [4] of 46.8 min. For the same molecule, the Vd [5] was 2.3 L/kg, the inhibition [6] was “Active” and the Papp A→B [7] was 1.8 ×10⁻⁶ cm/s. The bioavailability [8] was 21%, the clearance [9] was 60.1 mL/min/kg and the IC50 [10] was > 30 µM.

With N[C@H]1CN(c2cc(-c3cc(F)c(F)cc3F)ncn2)C[C@@H]1N1CCCCC1=O the IC50 [2] was 47 nM and the clearance [1] was < 7.2 µL/min/mg.

With Cc1nc(N2C[C@H](N)[C@@H](N3CC(F)(F)CCC3=O)C2)cc(N2CCC(F)(F)C2)n1 the IC50 [2] was 13 nM, the Papp A→B [7] was 3.9 ×10⁻⁶ cm/s and the IC50 [10] was > 30 µM.

With N[C@H]1CN(c2ncnc(N3CCC(F)(F)C3)n2)C[C@@H]1N1CC(F)(F)CCC1=O the IC50 [11] was > 15 µM, the fraction unbound [12] was 0.83 and the Vd [13] was 1.9 L/kg. The half-life [14] was 354 min, the half-life [4] was 216 min and the IC50 [15] was > 15 µM. For the same molecule, the Vd [5] was 8.4 L/kg, the IC50 [16] was > 15 µM and the Papp A→B [7] was 5 ×10⁻⁶ cm/s. The IC50 [17] was > 15 µM, the bioavailability [8] was 90% and the clearance [9] was 46 mL/min/kg. The clearance [18] was 7.2 mL/min/kg, the bioavailability [19] was 150% and the IC50 [10] was > 30 µM.

With COc1ccc(-c2cc(N3C[C@H](N)[C@@H](N4CCCCC4=O)C3)ncn2)cn1 the IC50 [20] was > 30 µM and the Papp A→B [7] was 2.7 ×10⁻⁶ cm/s.

Molecule N[C@H]1CN(c2cc(N3CCc4nocc4C3)ncn2)C[C@@H]1c1ccccc1 has an IC50 [2] of 1.6 nM and a clearance [1] of 56 µL/min/mg.

With N[C@H]1CN(c2ncnc(N3CCC(F)(F)C3)n2)C[C@@H]1N1CCCCC1=O the fraction unbound [3] was 0.86, the half-life [4] was 300 min and the Vd [5] was 4.7 L/kg. The inhibition [6] was “Active”, the Papp A→B [7] was 3.8 ×10⁻⁶ cm/s and the bioavailability [8] was 52%. The clearance [9] was 36.8 mL/min/kg and the IC50 [10] was > 30 µM.

In the case of N[C@H]1CN(c2ncnc(-c3ccccc3)n2)C[C@@H]1N1CCCCC1=O, the IC50 [20] is reported as > 30 µM and the Papp A→B [7] is reported as 35.7 ×10⁻⁶ cm/s.

With N[C@H]1CN(c2cc(N3CCc4nocc4C3)ncn2)C[C@@H]1N1CCCC1=O the clearance [1] was < 7 µL/min/mg.

N[C@H]1CN(c2cc(N3CCC(F)(F)C3)ncn2)C[C@@H]1N1CC(F)(F)CCC1=O gave a fraction unbound [3] of 0.82, a half-life [4] of 144 min and a Vd [5] of 5.7 L/kg. It also gave a Papp A→B [7] of 3.4 ×10⁻⁶ cm/s, a bioavailability [8] of 50% and a clearance [9] of 84 mL/min/kg. The IC50 [10] was > 30 µM.

In the case of N[C@H]1CN(c2cc(NC3CC3)ncn2)C[C@@H]1N1CCCCC1=O, the clearance [1] is reported as < 7 µL/min/mg.

With N[C@H]1CN(c2cc(NC3CC3)ncn2)C[C@@H]1c1ccccc1 the IC50 [2] was 19 nM and the clearance [1] was 38 µL/min/mg.
